What was measured:
Format in all cases: biochemical
human JAK1 [1] = target: human JAK1 (Homo sapiens, UniProt P23458); experiment: In vitro JAK kinase assay (HTRF, phosphorylation of a biotinylated peptide), JAK1; conditions: 1 mM ATP
Protocol: (§1) Compounds herein were tested for inhibitory activity of JAK targets according to the following in vitro assay described in Park et al., Analytical Biochemistry 1999, 269, 94-104. The catalytic domains of human JAK1 (a.a. 837-1142), JAK2 (a.a. 828-1132) and JAK3 (a.a. 781-1124) were expressed using baculovirus in insect cells and purified. The catalytic activity of JAK1, JAK2 or JAK3 was assayed by measuring the phosphorylation of a biotinylated peptide. The phosphorylated peptide was detected by homogenous time resolved fluorescence (HTRF). IC50s of compounds were measured for each kinase in the 40 μL reactions that contain the enzyme, ATP and 500 nM peptide in 50 mM Tris (pH 7.8) buffer with 100 mM NaCl, 5 mM DTT, and 0.1 mg/mL (0.01%) BSA. For the 1 mM IC50 measurements, ATP concentration in the reactions was 1 mM. Reactions were carried out at room temperature for 1 hour and then stopped with 20 μL 45 mM EDTA, 300 nM SA-APC, 6 nM Eu-Py20 in assay buffer (Perkin Elmer, Boston, Mass.). Binding to the Europium labeled antibody took place for 40 minutes and HTRF signal was measured on a PHERA star plate reader (BMG, Cary, N.C.). The Example compounds were each tested in the Example A assay (see Table 1 for data for the compounds of the examples as tested by the assay of Example A at 1 mM ATP).

human JAK1 [2] = experiment: as above; conditions: ratio of IC50s, 1 mM ATP
Protocol: as §1

human JAK2 = human JAK2 (Homo sapiens (Human), UniProt O60674); experiment: In vitro JAK kinase assay (HTRF, phosphorylation of a biotinylated peptide), JAK2; set-up: key to JAK2 IC50 (nM): +indicates an IC50 of ≦100 nM; ++indicates an IC50 of ≦1000 nM; +++indicates an IC50 of ≦2000 nM; ++++indicates an IC50 of >2000 nM; +++++indicates that the IC50 was greater than the highest concentration tested; conditions: 1 mM ATP
human JAK2, sequence (O60674 828-1132): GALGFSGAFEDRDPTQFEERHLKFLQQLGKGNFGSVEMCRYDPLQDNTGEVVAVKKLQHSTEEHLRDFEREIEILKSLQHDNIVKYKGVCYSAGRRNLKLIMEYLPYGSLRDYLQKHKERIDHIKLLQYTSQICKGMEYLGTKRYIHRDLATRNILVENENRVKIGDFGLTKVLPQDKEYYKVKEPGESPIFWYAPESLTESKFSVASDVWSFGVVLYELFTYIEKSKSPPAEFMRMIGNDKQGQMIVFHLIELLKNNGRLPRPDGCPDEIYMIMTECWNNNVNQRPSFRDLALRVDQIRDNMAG
Protocol: as §1

Row | Compound | IC50 (human JAK1 [1]) [nM] | JAK2/JAK1 (human JAK1 [2]) | IC50 (human JAK2) [nM] | JAK2 IC50 (nM) (human JAK2)
1 | Cc1nc2cnc3ccsc3n2c1-c1ccc(CC#N)cc1 [Example 33, [4-(7-Methylimidazo[1,2-a]thieno[3,2-e]pyrazin-8-yl)phenyl]acetonitrile] | ≤ 100 | >7 | ≤ 1000 | 
2 | [(1R,2S,4S)-4-(2-Methyl-1H-imidazo[4,5-d]thieno[3,2-b]pyridin-1-yl)-2-hydroxycyclohexyl]acetonitrile and [(1S,2R,4R)-4-(2-methyl-1H-imidazo[4,5-d]thieno[3,2-b]pyridin-1-yl)-2-hydroxycyclohexyl]acetonitrile [41 (first peak)] | ≤ 100 | >10 | ≤ 1000 | 
3 | C[C@@H](O)c1nc2cnc3ccsc3c2n1[C@H]1CCCN(C(=O)CCc2cccnc2)C1 [Example 54, (1R)-1-{1-[(3S)-1-(3-Pyridin-3-ylpropanoyl)piperidin-3-yl]-1H-imidazo[4,5-d]thieno[3,2-b]pyridin-2-yl}ethanol] | ≤ 1000 | >10 |  | +++++
4 | CN1CC(c2nc3cnc4ccsc4c3n2[C@H]2CC[C@H](CC#N)CC2)C1 [Example 29, {trans-4-[2-(1-Methylazetidin-3-yl)-1H-imidazo[4,5-d]thieno[3,2-b]pyridin-1-yl]cyclohexyl}acetonitrile] | ≤ 1000 | >9 | ≤ 2000 | 
5 | C[C@@H](O)c1nc2cnc3ccsc3c2n1[C@H]1CC[C@@H](C#N)CC1 [Example 7, cis-4-{2-[(1R)-1-Hydroxyethyl]-1H-imidazo[4,5-d]thieno[3,2-b]pyridin-1-yl}cyclohexanecarbonitrile] | ≤ 100 | >10 | ≤ 2000 | 
6 | C[C@@H](O)c1nc2cnc3ccsc3c2n1[C@H]1CC[C@H](CCS(C)(=O)=O)CC1 [Example 5, (1R)-1-(1-{trans-4-[2-(Methylsulfonyl)ethyl]cyclohexyl}-1H-imidazo[4,5-d]thieno[3,2-b]pyridin-2-yl)ethanol] | ≤ 100 | >10 |  | +++++
7 | C[C@@H](O)c1nc2cnc3ccsc3c2n1[C@H]1CC[C@@H](CC#N)OC1 [Example 21, ((2S,5S)-5-{2-[(1R)-1-Hydroxyethyl]-1H-imidazo[4,5-d]thieno[3,2-b]pyridin-1-yl}tetrahydro-2H-pyran-2-yl)acetonitrile] | ≤ 1000 | >10 |  | +++++
8 | CCNC(=O)C[C@H]1CC[C@H](n2c([C@@H](C)O)nc3cnc4ccsc4c32)CC1 [Example 31, N-Ethyl-2-(trans-4-{2-[(1R)-1-hydroxyethyl]-1H-imidazo[4,5-d]thieno[3,2-b]pyridin-1-yl}cyclohexyl)acetamide] | ≤ 1000 | >10 |  | +++++
9 | CS(=O)(=O)NCc1nc2cnc3ccsc3c2n1[C@H]1CC[C@H](CC#N)CC1 [Example 18, N-({1-[trans-4-(Cyanomethyl)cyclohexyl]-1H-imidazo[4,5-d]thieno[3,2-b]pyridin-2-yl}methyl)methanesulfonamide] | ≤ 100 | >10 | ≤ 1000 | 
10 | Cc1nc2cnc3ccsc3c2n1[C@H]1CC[C@H](CC#N)OC1 [Example 38, [(2R,5S)-5-(2-Methyl-1H-imidazo[4,5-d]thieno[3,2-b]pyridin-1-yl)tetrahydro-2H-pyran-2-yl]acetonitrile] | ≤ 100 | >10 | ≤ 100 | 
11 | C[C@@H](O)c1nc2cnc3ccsc3c2n1C1CCCCC1 [Example 13, (1R)-1-(1-Cyclohexyl-1H-imidazo[4,5-d]thieno[3,2-b]pyridin-2-yl)ethanol] | ≤ 100 | >10 | > 2000 | 
12 | C[C@@H](O)c1nc2cnc3ccsc3c2n1C1CCC(NCCC#N)CC1 (single isomer, unassigned) [30 (first peak)] | ≤ 1000 | >2 | > 2000 | 
13 | C[C@@H](O)c1nc2cnc3ccsc3c2n1[C@H]1CC[C@H](O)CC1 [Example 3, trans-4-{2-[(1R)-1-Hydroxyethyl]-1H-imidazo[4,5-d]thieno[3,2-b]pyridin-1-yl}cyclohexanol] | ≤ 1000 | >10 |  | +++++

Further lines, results first:

Row | IC50 (human JAK1 [1]) [nM] | JAK2/JAK1 (human JAK1 [2]) | IC50 (human JAK2) [nM] | JAK2 IC50 (nM) (human JAK2) | Compound
14 | ≤ 1000 | >10 | > 2000 |  | C[C@@H](O)c1nc2cnc3ccsc3c2n1[C@H]1CCN(CCC#N)C1 [Example 62, 3-((3S)-3-{2-[(1R)-1-Hydroxyethyl]-1H-imidazo[4,5-d]thieno[3,2-b]pyridin-1-yl}pyrrolidin-1-yl)propanenitrile]
15 | ≤ 100 | >10 | ≤ 1000 |  | N#CCc1nc2cnc3ccsc3c2n1[C@H]1CC[C@H](CC#N)CC1 [Example 90, {1-[trans-4-(Cyanomethyl)cyclohexyl]-1H-imidazo[4,5-d]thieno[3,2-b]pyridin-2-yl}acetonitrile]
16 | ≤ 100 | >10 | ≤ 1000 |  | COC(=O)NC[C@H]1CC[C@H](n2c([C@@H](C)O)nc3cnc4ccsc4c32)CC1 [Example 78, Methyl [(trans-4-{2-[(1R)-1-hydroxyethyl]-1H-imidazo[4,5-d]thieno[3,2-b]pyridin-1-yl}cyclohexyl)methyl]carbamate]
17 | ≤ 1000 | >10 |  | +++++ | N#CCc1nc2cnc3ccsc3c2n1[C@H]1CC[C@@H](CC#N)OC1 [Example 74, {(2S,5S)-5-[2-(Cyanomethyl)-1H-imidazo[4,5-d]thieno[3,2-b]pyridin-1-yl]tetrahydro-2H-pyran-2-yl}acetonitrile]
18 | ≤ 100 | >10 | > 2000 |  | CCC(=O)NC[C@H]1CC[C@H](n2c(CC#N)nc3cnc4ccsc4c32)CC1 [Example 89, N-({trans-4-[2-(Cyanomethyl)-1H-imidazo[4,5-d]thieno[3,2-b]pyridin-1-yl]cyclohexyl}methyl)propanamide]
19 | ≤ 100 | >10 | ≤ 1000 |  | N#CC[C@H]1CC[C@H](n2c(CO)nc3cnc4ccsc4c32)CO1 [Example 91, {(2R,5S)-5-[2-(Hydroxymethyl)-1H-imidazo[4,5-b]thieno[3,2-b]pyridin-1-yl]tetrahydro-2H-pyran-2-yl}acetonitrile]
20 | ≤ 2000 | >6 |  | +++++ | C[C@@H](O)c1nc2cnc3ccsc3c2n1[C@H]1CCN(C(=O)CC#N)C1 [Example 63, 3-((3S)-3-{2-[(1R)-1-Hydroxyethyl]-1H-imidazo[4,5-d]thieno[3,2-b]pyridin-1-yl}pyrrolidin-1-yl)-3-oxopropanenitrile]
21 | ≤ 100 | >10 |  | +++++ | C[C@@H](O)c1nc2cnc3ccsc3c2n1[C@H]1CC[C@H](CNC(=O)OC2CCOC2)CC1 (stereo partly drawn) [Example 85, Tetrahydrofuran-3-yl [(trans-4-{2-[(1R)-1-hydroxyethyl]-1H-imidazo[4,5-d]thieno[3,2-b]pyridin-1-yl}cyclohexyl)methyl]carbamate]
22 | ≤ 1000 | >10 | > 2000 |  | C[C@@H](O)c1nc2cnc3ccsc3c2n1[C@H]1CC[C@H](CC#N)[C@H](N)C1 [Example 67, ((1R,2R,4S)-2-Amino-4-{2-[(1R)-1-hydroxyethyl]-1H-imidazo[4,5-d]thieno[3,2-b]pyridin-1-yl}cyclohexyl)acetonitrile]

— patent US9777017B2, “Tricyclic fused thiophene derivatives as JAK inhibitors” (Incyte Corporation, priority 2012, dated 2017)
